A short description of experiment [1]: Inhibition of Saccharomyces cerevisiae alpha-glucosidase for 15 mins by multiplate reader method using 0.7 mM p-nitrophenyl-alpha-D-glucopyranoside as substrate.
Experiment [2] is described as follows: Mixed inhibition of Saccharomyces cerevisiae alpha-glucosidase by multiplate reader method using p-nitrophenyl-alpha-D-glucopyranoside as substrate.
A short description of experiment [3]: Competitive inhibition of Saccharomyces cerevisiae alpha-glucosidase by multiplate reader method using p-nitrophenyl-alpha-D-glucopyranoside as substrate.
Experiment [4] is described as follows: Non-Competitive inhibition of Saccharomyces cerevisiae alpha-glucosidase by multiplate reader method using p-nitrophenyl-alpha-D-glucopyranoside as substrate.

By IC50 is commonly meant the concentration needed to halve the response being measured. Consider `COc1ccc(O)c(-c2nc3ccccc3c(=O)[nH]2)c1`, for which the IC50 in experiment [1] (read-out: IC50) stood at 1.15 µM. In the case of `O=c1[nH]c(-c2ccc(O)cc2)nc2ccccc12`, the IC50 in experiment [1] (read-out: IC50) is 10.5 µM. Take `O=c1[nH]c(-c2cc(O)ccc2O)nc2ccccc12`: the concentration for half-maximal inhibition (IC50) in experiment [1] (read-out: IC50) came out at 2.35 µM. Still for that read-out and setting: as for `O=c1[nH]c(-c2ccccc2O)nc2ccccc12`, the figure is 10.4 µM; as for `COc1cc(-c2nc3ccccc3c(=O)[nH]2)cc(OC)c1OC`, 118 µM; as for `O=c1[nH]c(-c2cccc([N+](=O)[O-])c2)nc2ccccc12`, 18 µM. What is called Ki is a dissociation constant, usually derived from enzyme kinetics or from competition with a known ligand. Consider `CCOc1ccccc1-c1nc2ccccc2c(=O)[nH]1`, for which, in experiment [1] (read-out: IC50), the IC50 came to 0.57 µM. In experiment [2], this molecule displayed a Ki of 6.6 µM. Consider `O=c1[nH]c(-c2c(Cl)cccc2Cl)nc2ccccc12`, for which the IC50 in experiment [1] (read-out: IC50) is 68.1 µM. Same read-out and setting: then `O=c1[nH]c(-c2ccc(O)c(O)c2)nc2ccccc12`, with 1.5 µM. `CCOc1ccc(-c2nc3ccccc3c(=O)[nH]2)cc1`: in experiment [1] (read-out: IC50), the IC50 was 3.25 µM. Still for that read-out and setting: as for `O=c1[nH]c(-c2c(O)cccc2Br)nc2ccccc12`, the figure is 9.73 µM; as for `O=c1[nH]c(-c2ccccc2Cl)nc2ccccc12`, 1.3 µM.

As to `COc1ccc(-c2nc(O)c3ccccc3n2)cc1OC`, the IC50 in experiment [1] (read-out: IC50) was found to be 0.86 µM. In experiment [3], this molecule gave an inhibition constant Ki of 0.283 µM.

Take `O=c1[nH]c(-c2cccc(O)c2)nc2ccccc12`: the half-inhibitory concentration (IC50) result in experiment [1] is on record as “Not Active”. With `O=c1[nH]c(-c2ccc([N+](=O)[O-])cc2)nc2ccccc12`, the concentration for half-maximal inhibition (IC50) entry in experiment [1] was “Not Active”; in experiment [1] (read-out: IC50) it was 20 µM.

Consider `Cc1ccc(-c2nc3ccccc3c(=O)[nH]2)cc1`, for which the IC50 in experiment [1] (read-out: IC50) stood at 76 µM.

Take `CN(C)c1ccc(-c2nc(O)c3ccccc3n2)cc1`: the IC50 in experiment [1] (read-out: IC50) turned out to be 2.75 µM.

Take `COc1ccc(-c2nc(O)c3ccccc3n2)cc1`: the IC50 in experiment [1] (read-out: IC50) worked out at 0.4 µM. Further, the Ki in experiment [4] is 0.25 µM.

In experiment [3], `C[C@H]1O[C@H](O[C@H]2[C@H](O)[C@@H](O)[C@@H](O[C@H]3[C@H](O)[C@@H](O)C(O)O[C@@H]3CO)O[C@@H]2CO)[C@H](O)[C@@H](O)[C@@H]1N[C@H]1C=C(CO)[C@@H](O)[C@H](O)[C@H]1O` (stereo partly drawn) [ACARBOSE] came in with a Ki of 736 µM. With `O=c1[nH]c(-c2cc(Cl)ccc2Cl)nc2ccccc12`, in experiment [1] (read-out: IC50), the IC50 was found to be 16.2 µM. On to `COc1cccc(-c2nc3ccccc3c(=O)[nH]2)c1O`, for which the IC50 in experiment [1] (read-out: IC50) turned out to be 14.6 µM.

In the case of `COc1ccc(-c2nc3ccccc3c(=O)[nH]2)cc1O`, the IC50 in experiment [1] (read-out: IC50) worked out at 1.9 µM. For `CCOc1cc(-c2nc3ccccc3c(=O)[nH]2)ccc1O`, in experiment [1] (read-out: IC50), the IC50 worked out at 0.3 µM. Also, the Ki in experiment [3] worked out at 0.43 µM.

These data come from ChEMBL document CHEMBL3627644, “2-Arylquinazolin-4(3H)-ones: A new class of α-glucosidase inhibitors” (Bioorg Med Chem, 2015).
